The values that follow come from publication PMC8305076, “Comprehensive Evaluation of Biological Effects of Pentathiepins on Various Human Cancer Cell Lines and Insights into Their Mode of Action” (International Journal of Molecular Sciences, 2021).

The test system of one experiment is GR/CAT. The experiment is described as follows: GR/CAT inhibition (summary of off-target assays). The format is biochemical. More on the design: key: no impact (0); weak impact (+); strong impact (++). Conditions: summary grade. As for the experimental part: To assess the specificity of inhibitors toward the GPx1, we performed enzymatic assays with other relevant antioxidant enzymes. These included the glutathione reductase (GR; yeast-derived), which is an auxiliary component of the GPx1 assay, and catalase (CAT; bovine), a key redox enzyme that fulfils a similar enzymatic task as the GPx1 by detoxifying hydrogen peroxide. None of the pentathiepins altered the activity of either enzyme at a concentration of 25 µM (Figure 5b,c).
Off-target assays were conducted to assess the specificity of the pentathiepins for inhibiting the GPx1; these were the activities of GR and CAT (from bovine liver) that have previously been described. As the baker’s yeast GR is an important component in the GPx assay, its inhibition by pentathiepins had to be excluded. A fixed pentathiepin concentration of 25 µM was tested in triplicate, following the same principle as mentioned before, by monitoring the consumption of NADPH by the GR at λ = 340 nm while GSSG is reduced back to GSH. All assay components were prepared in potassium phosphate buffer (50 mM, pH 7.4, 1.1 mM EDTA, 0.01% Triton-X solution), except for the inhibitor that was diluted in DMF. Subsequently, 180 µL of buffer was added per well followed by 30 µL of a 2.0 U/mL GR solution, 30 µL of a 2.0 mM NADPH solution, and 30 µL of a 250 µM pentathiepin solution or 30 µL of DMF as negative control. Finally, to start the reaction, 30 µL of a 2.5 mM GSSG solution was added, resulting in final concentrations of 0.2 U/mL of GR, 0.2 mM of NADPH, 25 µM of pentathiepin, and 0.25 mM of GSSG. After measuring the decrease of NADPH every 15 s for 30 min at room temperature, the relative inhibition of the GR was calculated by relating the activity of the pentathiepin-treated samples to the negative control.
The CAT activity assay is based on the principle that in the presence of H2O2 and heat, and dichromate in acetic acid is reduced to chromic acetate via perchromic acid as unstable intermediate. Here, the amount of chromic acetate is measured twice, once directly after adding H2O2 (t0min) and once again after the CAT (bovine origin) split the H2O2 for a period of 10 min (t10min) in the presence or absence of a putative inhibitor. Samples in this assay included a blank (+CAT/+DMF/−H2O2), a H2O2 standard (−CAT/+DMF/+H2O2), a negative control (+CAT/+DMF/+H2O2), and the test conditions (+CAT/+25 µM pentathiepin/+H2O2). For each condition, 3.0 mL of 0.002 mg/mL CAT in potassium phosphate buffer (50 mM, pH 7.4, EDTA 1.1 mM, Triton-X 0.01%) were prepared in a glass tube. Additionally, two tubes were prepared per condition each containing 2 mL of a reagent containing 1 part of an aqueous solution of K2Cr2O7 (5%) and 2 parts glacial acetic acid. Subsequently, the solvent or inhibitors were added, and the tubes placed on a shaker for 5 min. To start the reaction, 61.8 µL of a 30% H2O2 solution was added and then mixed, and immediately 1 mL was transferred to one tube containing the K2Cr2O7/acetic acid solution (t0min). The remaining 2 mL was incubated on a shaker for 10 min, and then the previous step was repeated (t10min). Finally, all tubes were boiled in a water bath and cooled down to room temperature, and then absorbance was measured at λ = 570 nm and the instrument was blanked with the blank solution. The difference in absorbance between t0min and t10min was calculated, and all samples were related to the negative control.

Experiment [1] has as its system panel of 14 human cancer cell lines. The experiment is described as follows: crystal violet proliferation assay, whole panel. Details: key to Antiproliferative effect: no impact (0); weak impact (+); strong impact (++). The format is cell-based. To be noted: for GI50: mean over the cell line panel, normoxia, read-out: GI50 CV, mean per compound; for Antiproliferative effect: summary grade. As for the experimental part: Distinct MTT cell viability and crystal violet cell proliferation assays were performed to assess the cytotoxicity of the compounds 1–6 on 14 human cancer cell lines. In the viability assay, cells with intact mitochondria and thus active dehydrogenases are competent to convert MTT to the corresponding insoluble formazan. The formazan can be photometrically detected after solubilization and allows for indirect conclusions about the viability of the cells as an IC50 value. In the crystal violet assay, cells are stained by the binding of the dye to the chromatin, thus allowing for a quantification of biomass that remains adherent after a treatment in comparison with a control after a specific time. Potency is defined as the growth inhibitory concentration 50% (GI50).
The antiproliferative effect of the pentathiepins on human cancer cell lines was analyzed by crystal violet assay based on the protocol of a previous publication. […] After dissolving in ethanol, the optical density was measured. Here, 1000 cells (250 for LCLC-103H) in 0.1 mL of medium were seeded per well of a 96 well plate and incubated at standard conditions for 24 h prior to treatment to allow for adhesion of the cells. A serial dilution of the test compounds was prepared in medium, covering final concentrations from 10.0 to 0.04 µM and 0.1 mL of the working solution added to each well in triplicate. Additionally, samples for each cell line were seeded and directly fixed after 24 h to measure the cell density at the beginning of treatment (t0). Fixation was performed by replacing medium with 0.1 mL of a solution containing 1% glutaraldehyde in Dulbecco’s buffer (0.2 g/L KCl, 0.1 g/L MgSO4·7 H2O, 1.55 g/L Na2HPO4·7 H2O, 0.2 g/L KH2HPO4, and 8 g/L NaCl in water) for 20 min. Plates were stored in 0.1 mL of Dulbecco’s buffer until further processing. After 96 h of treatment, the same fixation process was applied to the plates containing cells and test compounds. To stain the cells, 0.1 mL of an aqueous solution of crystal violet (0.02%) was added per well for 20 min, then discarded and the plates afterwards rinsed in clear water for 30 min. The dye was extracted in 50 µL of ethanol per well during 2 h of shaking. The plates were read at λ = 570 nm using a SpectraMax 384plus (Molecular Devices, Sunnyvale, CA, USA), and the proliferation of the treatment conditions was calculated in relation to a solvent control sample after subtracting the background value of the T0-plates. The GI50 (half-maximal growth inhibitory concentration) was calculated via nonlinear regression followed by interpolation of the dose–response graphs in Prism 7 (GraphPad, San Diego, CA, USA). […]

Read-outs that look alike come from different tables or passages of the source.

For orientation: GI50 means the concentration giving 50% growth inhibition. Turning to `CCOc1c2c(c3ccc(C(=O)N(CC)CC)cn13)SSSSS2` [Compound 4, 6-Ethoxy-N,N’-diethyl-[1,2,3,4,5]pentathiepino[6,7-a]indolizine-9-carboxamide], the GR/CAT inhibition in the experiment with GR/CAT came out at 0. For the same compound, the GI50 in experiment [1] (Homo sapiens) came to 322 nM. Further, the Antiproliferative effect entry in experiment [1] is recorded as “++”.

Take `CCOc1c2c(c3ccc(C(=O)N4CCN(C(=O)c5ccc(F)cc5)CC4)cn13)SSSSS2` [Compound 5, (6-Ethoxy-[1,2,3,4,5]pentathiepino[6,7-a]indolizin-9-yl)(4-(4-fluorobenzoyl)piperazinyl)methanone]: the GR/CAT inhibition with GR/CAT was 0. In addition, the GI50 in experiment [1] (Homo sapiens) amounted to 267 nM. Besides, the Antiproliferative effect result in experiment [1] is given as “++”.

Consider `CCOc1c2c(c3cnc4[nH]c(-c5ccc(OC)cc5)cc4n13)SSSSS2` [Compound 1, 11-Ethoxy-2-(4-methoxyphenyl)-3H-[1,2,3,4,5]pentathiepino[6′,7′:3,4]pyrrolo[1,2-a]pyrrolo[2,3-e]pyrazine], for which the GR/CAT inhibition with GR/CAT is listed as 0. The GI50 in experiment [1] (Homo sapiens) was determined as 333 nM. The Antiproliferative effect result in experiment [1] is on record as “++”.

For the compound `CCOc1c2c(c3ccc(C(=O)N4CCOCC4)cn13)SSSSS2` [Compound 3, (6-Ethoxy-[1,2,3,4,5]pentathiepino[6,7-a]indolizin-9-yl)(morpholino)methanone], the GR/CAT inhibition in the experiment with GR/CAT came to 0. Further, in experiment [1] (Homo sapiens), the GI50 came out at 170 nM. For the same compound, in experiment [1], the GI50 is 174 nM and the Antiproliferative effect result was “++”.

`CCOc1c2c(c3ccc(C(=O)N4CCN(S(=O)(=O)c5ccc(C)cc5)CC4)cn13)SSSSS2` [Compound 6, (6-Ethoxy-[1,2,3,4,5]pentathiepino[6,7-a]indolizin-9-yl)(4-tosylpiperazinyl)methanone] returned a GR/CAT inhibition with GR/CAT of 0. Further, the GI50 in experiment [1] (Homo sapiens) was determined as 570 nM. Moreover, in experiment [1], the GI50 is 671 nM and the Antiproliferative effect entry is listed as “+”.

In the experiment with GR/CAT, `CCOc1c2c(c3ccc(C(=O)N4CCCCC4)cn13)SSSSS2` [Compound 2, (6-Ethoxy-[1,2,3,4,5]pentathiepino[6,7-a]indolizin-9-yl)(piperidinyl)methanone] came in with a GR/CAT inhibition of 0. Besides, the GI50 in experiment [1] (Homo sapiens) came out at 493 nM. Moreover, in experiment [1], the Antiproliferative effect result was “+”.
